Data as given in patent publication US20130203823A1, “STABLE TOPICAL COMPOSITIONS FOR 1,2,4-THIADIAZOLE DERIVATIVES” (JANSSEN PHARMACEUTICAL, INC., priority 2009, published 2013).

Columns and labels:
[1] = In vitro skin permeation study, cadaver skin finite dose technique, Franz diffusion cell; assay type: in vitro ADME, human
Procedure: The cadaver skin finite dose technique was used for the studies. Split thickness human cadaver trunk skin was obtained from skin bank and stored in a water-impermeable plastic bag at about −70° C. Prior to each experiment, skin was thawed in water bath at about 37° C., then cut into sections large enough to fit on the Franz diffusion cell. The diffusion cells were mounted in a diffusion apparatus and filled with a receptor solution of ethanol/water/formic acid (25/75/0.3), which was stirred at about 600 RPM and maintained at about 32° C. The skin was mounted onto the diffusion cell, where the stratum corneum side faced the donor compartment and the dermal side faced the receiving compartment. About 10 μl per cm^2 of the composition was applied to the skin using a pipette. The dose was spread throughout the skin surface with a Teflon tip of the pipette. After about 4, 8, 12 and 24 hrs, the receptor solution was removed and replaced with fresh receptor solution. An aliquot was taken for analysis. The skin surface was washed with about 0.5 ml of a solvent mixture of methanol/water/formic acid (90/10/0.3). The solvent mixture was filtered and an aliquot was taken for analysis. Subsequently, the dermis and epidermis were separated and Compound IIa was extracted using the solvent mixture. The solvent mixture was filtered and an aliquot was taken for analysis. Samples were analyzed using HPLC.

[2] = Stability of the compound in the composition on storage, concentration by HPLC versus initial concentration; assay type: physicochemical
From the text: The compositions of the present invention have desired and improved properties, including the extended shelf-life or stability and the suitable commercial production. As used herein, the terms ‘stable composition’, ‘stable formulation’, ‘composition with extended shelf-life’ or variants thereof refer to the compound of Formula I, II, or III (and most preferably Compounds Ia, IIa, and IIIa) in the composition is stable. The stability or shelf-life of the compound may be determined by measuring the concentration and any degradation product of the compound of Formula I, II or III in the compositions using high performance liquid chromatography (HPLC). As commonly referred in the art, the compound is considered to be stable or being stabilized when the concentration of the compound retains at least about 90% to at least about 110%, preferably at least about 95% to at least about 105%, of the original concentration of the compound.
By way of example, the stability of the compound of Formula I, II, or III is determined using HPLC equipped with a temperature-controlled autosampler, a thermostatic column compartment, and an UV detector at about 326 nm (Agilent 1100, Waters alliance HPLC). A Zorbax C18 column is used for analyzing Compound Ia and a YMC-Pack Hydrosphere C18 column is used for analyzing Compound IIa. A binary linear gradient of mobile phases A and B is used. The mobile phase A may consist of about 0.2% trifluroacetic acid in water and the mobile phase B may consist of about 0.2% trifluroacetic acid in methanol. The gradient conditions are provided below.
The stability of Compound Ia was examined by measuring the concentration of Compound Ia using HPLC. The concentration of the compound in the composition stored at various temperatures for a period of time was compared to the initial concentration of the compound prior to storage.

[3] = aqueous gel formulation B, 0.30% w/w Compound IIa
[4] = aqueous gel formulation B, 0.60% w/w Compound IIa
[5] = aqueous gel formulation B, 1.2% w/w Compound IIa
[6] = cream composition E (as titled), 0.30% w/w Compound IIa
[7] = cream composition E (as titled), 0.60% w/w Compound IIa
[8] = cream composition E (as titled), 1.2% w/w Compound IIa
[9] = cream composition E (as titled), 2.4% w/w Compound IIa

COc1ccccc1-c1nc(=Nc2ccccc2)sn1-c1ccccc1OC [Compound IIa, [2-(2-methoxyphenyl)-3-(2-methoxyphenyl)-2H-[1,2,4]-thiadiazol-5-ylidene]-phenylamine]
Skin penetration (in words) ([1]; aqueous gel formulation B): able to penetrate into epidermis, dermis and receptor solution | Total amount permeated into Dermis [1, 3]: 0.004 µg | Total amount permeated into Epidermis [1, 3]: 0.361 µg | Total amount permeated into Receptor solution [1, 3]: 0.020 µg | Total amount permeated into Dermis [1, 4]: 0.007 µg | Total amount permeated into Epidermis [1, 4]: 0.164 µg | Total amount permeated into Receptor solution [1, 4]: 0.045 µg | Total amount permeated into Dermis [1, 5]: 0.007 µg | Total amount permeated into Epidermis [1, 5]: 0.537 µg | Total amount permeated into Receptor solution [1, 5]: 0.074 µg | Total penetration amount in epidermis, dermis and receptor solution versus concentration (in words) ([1]; as the concentration of Compound IIa increased in the formulations): increased | Skin penetration (in words) ([1]; cream composition D): able to penetrate into epidermis, dermis and receptor solution | Total amount permeated into Dermis [1, 6]: 0.003 µg | Total amount permeated into Epidermis [1, 6]: 0.279 µg | Total amount permeated into Receptor solution [1, 6]: 0.015 µg | Total amount permeated into Dermis [1, 7]: 0.015 µg | Total amount permeated into Epidermis [1, 7]: 0.357 µg | Total amount permeated into Receptor solution [1, 7]: 0.025 µg | Total amount permeated into Dermis [1, 8]: 0.014 µg | Total amount permeated into Epidermis [1, 8]: 0.428 µg | Total amount permeated into Receptor solution [1, 8]: 0.025 µg | Total amount permeated into Dermis [1, 9]: 0.028 µg | Total amount permeated into Epidermis [1, 9]: 0.681 µg | Total amount permeated into Receptor solution [1, 9]: 0.070 µg | % of Initial Concentration ([2]; aqueous gel composition B, 0.3% Compound IIa, 12 months, 5° C.): 99.47% | % of Initial Concentration ([2]; aqueous gel composition B, 0.3% Compound IIa, 12 months, 25° C.): 95.60% | % of Initial Concentration ([2]; aqueous gel composition B, 0.3% Compound IIa, 24 months, 5° C.): 97.92% | % of Initial Concentration ([2]; aqueous gel composition B, 0.3% Compound IIa, 24 months, 25° C.): 89.49% | % of Initial Concentration ([2]; aqueous gel composition B, 0.6% Compound IIa, 12 months, 25° C.): 93.90% | % of Initial Concentration ([2]; aqueous gel composition B, 0.6% Compound IIa, 24 months, 5° C.): 97.02% | % of Initial Concentration ([2]; aqueous gel composition B, 0.6% Compound IIa, 24 months, 25° C.): 92.69% | % of Initial Concentration ([2]; aqueous gel composition B, 1.2% Compound IIa, 12 months, 25° C.): 95.49% | % of Initial Concentration ([2]; aqueous gel composition B, 1.2% Compound IIa, 24 months, 5° C.): 97.56% | % of Initial Concentration ([2]; aqueous gel composition B, 1.2% Compound IIa, 24 months, 25° C.): 93.87% | % of Initial Concentration ([2]; aqueous gel composition B, 1.5% Compound IIa, 12 months, 5° C.): 100.68% | % of Initial Concentration ([2]; aqueous gel composition B, 1.5% Compound IIa, 12 months, 25° C.): 99.03% | % of Initial Concentration ([2]; aqueous gel composition B, 2.4% Compound IIa, 12 months, 25° C.): 101.30% | Stability in the composition (in words) ([2]; aqueous gel composition B, various amounts of Compound IIa, ambient condition): stable at ambient condition | Time for which the compound was stable ([2]; cream composition C (so in the source), ambient condition): at least 6 months | Time for which the compound was stable ([2]; cream composition C (so in the source), refrigerated condition): at least 18 months | % of Initial Concentration ([2]; cream composition D, 1.2% Compound IIa, 6 months, 5° C.): 100.0% | % of Initial Concentration ([2]; cream composition D, 1.2% Compound IIa, 6 months, 25° C.): 94.1% | % of Initial Concentration ([2]; cream composition D, 1.2% Compound IIa, 12 months, 5° C.): 98.3% | % of Initial Concentration ([2]; cream composition D, 1.2% Compound IIa, 18 months, 5° C.): 100.8% | % of Initial Concentration ([2]; emulsion composition E, 3 months, 5° C.): 101.40% | % of Initial Concentration ([2]; emulsion composition E, 3 months, 25° C.): 98.01% | % of Initial Concentration ([2]; emulsion composition E, 6 months, 5° C.): 100.11% | % of Initial Concentration ([2]; emulsion composition E, 6 months, 25° C.): 95.61% | % of Initial Concentration ([2]; emulsion composition E, 9 months, 5° C.): 100.20% | % of Initial Concentration ([2]; emulsion composition E, 13 months, 5° C.): 100.54% | Time for which the compound was stable ([2]; emulsion composition E, refrigerated condition): at least 13 months

COc1ccccc1-c1nc(Nc2ccccc2)s[n+]1-c1ccccc1OC.[Br-] [Compound Ia, 2-(2-methoxyphenyl)-3-(2-methoxyphenyl)-5-phenylamino-[1,2,4]-thiadiazol-2-ium]
Stability in the composition (in words) ([2]; aqueous gel composition A, 0.3% Compound Ia, ambient condition): stable at ambient condition | Time for which the compound was stable ([2]; emulsion composition F, refrigerated condition): at least 4 weeks
